Legend:
healthy subjects = test: Safety: single-dose study in healthy subjects (3, 6, 10, 16 mg/kg); type: in vivo; conditions: for Arthralgia / Colitis / Flatulence / Gastroenteritis / Headache / Somnolence / Total Number (%) of Subjects Experiencing Adverse Events / Total Number of Subjects Experiencing NO Adverse Events / Upper respiratory tract infection: 3 subjects
From the text: Example 8 was a double-blind, placebo-controlled single dose-escalating study in healthy subjects. Men between the ages of 18-45 years qualified to participate if they were able to voluntarily give consent and had no clinically significant abnormal findings at the screening evaluation. Specifically, subjects had blood pressure in the normal range, ECG and clinical laboratory values within normal limits, tested negative for drugs of abuse and had not recently donated blood. Subjects were also HIV, Hepatitis B, and Hepatitis C negative and agreed to use an approved method of contraception during the study.
The objectives of this study were to assess the safety, tolerability, and pharmacokinetics of ascending single doses of Compound 1 compared to placebo. Additionally, dose proportionality and pharmacodynamics of Compound 1 were assessed. Four doses of Compound 1 (3, 6, 10, and 16 mg/kg), in capsule form, were evaluated in this study. Following screening, subjects in a given cohort were randomly assigned to receive either Compound 1 or placebo. In the first cohort, 3 subjects received […] and 2 received placebo; in each of the subsequent remaining 3 cohorts, 3 subjects received the next higher dose of Compound 1 and 1 received placebo. Subjects were dosed and then confined to the clinical research unit for 24 hours to conduct safety and pharmacokinetic assessments. Subjects were released from the clinic on Day 2 and returned daily for follow-up visits for 5 days post-dosing.
All 17 enrolled subjects completed the study: Twelve received a single dose of Compound 1 (3, 6, 10, and 16 mg/kg) and 5 received placebo. […] Treatment-emergent adverse events (TEAEs) were reported for 5 of the 12 subjects receiving Compound 1 (Table 28 and 29). A total of 9 AEs were reported; 8 treatment-emergent, and 1 pre-dose, all in subjects receiving Compound 1. […] Additionally, there were no clear differences in safety as evaluated by clinical laboratory assessments, vital sign measurements, and ECG parameters between subjects who had received Compound 1 compared with those who received placebo, and no apparent dose-related trends in these safety assessments in subjects who received Compound 1.

[1] = test system: adults with transfusional iron overload; test: Example 10: efficacy study, liver iron concentration (LIC); type: in vivo, human; conditions: for % with net iron reduction / Mean net change in hepatic iron: first 24 weeks; for LIC, Week 12 / LIC, Week 24 / LIC, Week 48: patients entering extension study
Protocol: In this Example, the safety and efficacy of Compound 1 in adults with transfusional iron overload over 48 weeks of treatment was assessed. Diagnosis and transfusional iron burden of patients (including Asians, Blacks/African Americans, and Whites) at randomization are as follows: 38 patients diagnosed with β-thalassemia major, 2 patients diagnosed with α-thalassemia major, 2 diagnosed with β-thalassemia intermedia (transfusion>7/year), 6 diagnosed with HbE-β thalassemia, and 3 diagnosed with Sickle cell disease. The patients were divided into two dosing groups: 14.5 mg/kg/day and 29 mg/kg/day. Average liver iron content at baseline (mg/g dry weight) was 13.2 with SD 6.64 for the 14.5 mg/kg/day dosing group and 13.9 with SD 7.82 for the 29 mg/kg/day dosing group. Median serum ferritin (ng/ml) was 2564 for the 14.5 mg/kg/day dosing group and 2624 for the 29 mg/kg/day dosing group. Mean pre-transfusion average haemoglobin of previous 3 transfusions (g/dL) was 9.6 (with SD of 0.56) for the 14.5 mg/kg/day dosing group and 9.8 (with SD of 0.79) for the 29 mg/kg/day dosing group. Mean daily transfusion iron intake (mg/kg/d) was about 0.36 (ranging 0.22-0.84) for the 14.5 mg/kg/day dosing group and 0.38 (ranging 0.17-0.60) for the 29 mg/kg/day dosing group. See also FIGS. 7 and 8.

[2] = Aqueous solubility of salts; type: physicochemical; conditions: water; read-out: solubility in water
From the text: Typically, oral formulations described herein facilitate solubilizing an active ingredient (e.g., a desazadesferrithiocin analog, salt or polymorph) at a desired amount or rate suitable for the treatment of metal overload. As used herein, the term “solubility” is generally intended to be synonymous with the term “aqueous solubility,” and refers to the ability, and the degree of the ability, of a compound to dissolve in water or an aqueous solvent or buffer, as might be found under physiological conditions. Aqueous solubility is, in and of itself, a useful quantitative measure, but it has additional utility as a correlate and predictor, with some limitations which will be clear to those of skill in the art, of oral bioavailability. Typically, a soluble compound is generally desirable, and the more soluble, the better. In liquid formulations, solubility is typically reported in mg/mL, but other measures, such as g/g, may be used. Solubilities typically deemed acceptable may range from 1 mg/mL into the hundreds or thousands of mg/mL.
Solubility may be measured under varying conditions. For example, it may be measured under conditions similar to those found in the body, such as at gastric pH or at physiologic or near-physiologic pH. “Gastric pH” as used herein means about pH 1. […]

## COCCOCCOCCOc1cccc(C2=N[C@@](C)(C(=O)O)CS2)c1O [Compound 1, (S)-4,5-Dihydro-2-[2-hydroxy-3-(3,6,9-trioxadecyloxy)phenyl]-4-methyl-4-thiazolecarboxylate magnesium hydroxide]
Healthy subjects; 3 mg/kg
  Arthralgia: 0 Number (%) Subjects
  Colitis: 0 Number (%) Subjects
  Flatulence: 0 Number (%) Subjects
  Gastroenteritis: 1 (33%) Number (%) Subjects
  Headache: 0 Number (%) Subjects
  Somnolence: 1 (33%) Number (%) Subjects
  Total Number (%) of Subjects Experiencing Adverse Events: 1 (33%) Number (%)
  Total Number of Subjects Experiencing NO Adverse Events: 2 (67%)
  Upper respiratory tract infection: 0 Number (%) Subjects
Healthy subjects; 6 mg/kg
  Arthralgia: 1 (33%) Number (%) Subjects
  Colitis: 0 Number (%) Subjects
  Flatulence: 0 Number (%) Subjects
  Gastroenteritis: 0 Number (%) Subjects
  Headache: 0 Number (%) Subjects
  Somnolence: 0 Number (%) Subjects
  Total Number (%) of Subjects Experiencing Adverse Events: 1 (33%) Number (%)
  Total Number of Subjects Experiencing NO Adverse Events: 2 (67%)
  Upper respiratory tract infection: 1 (33%) Number (%) Subjects
Healthy subjects; 10 mg/kg
  Colitis: 0 Number (%) Subjects
  Flatulence: 0 Number (%) Subjects
  Gastroenteritis: 0 Number (%) Subjects
  Headache: 0 Number (%) Subjects
  Somnolence: 0 Number (%) Subjects
  Total Number (%) of Subjects Experiencing Adverse Events: 0 Number (%)
  Total Number of Subjects Experiencing NO Adverse Events: 3 (100%)
  Upper respiratory tract infection: 0 Number (%) Subjects
Healthy subjects; 16 mg/kg
  Arthralgia: 0 Number (%) Subjects
  Colitis: 1 (33%) Number (%) Subjects
  Flatulence: 1 (33%) Number (%) Subjects
  Headache: 1 (33%) Number (%) Subjects
  Somnolence: 0 Number (%) Subjects
  Total Number (%) of Subjects Experiencing Adverse Events: 3 (100%) Number (%)
  Total Number of Subjects Experiencing NO Adverse Events: 0
  Upper respiratory tract infection: 0 Number (%) Subjects
Healthy subjects; single dose 3, 6, 10, 16 mg/kg
  tolerability: well tolerated
Healthy subjects; single dose 3-16 mg/kg
  deaths, SAEs, withdrawals due to AEs: no deaths, no serious adverse events (SAEs), and no withdrawals due to AEs
  subjects with treatment-emergent adverse events (TEAEs): 5 of the 12
  total AEs reported: 9 AEs
  treatment-emergent AEs: 8
[1]; 14.5 mg/kg
  % with net iron reduction: 29%
  Mean net change in hepatic iron: 3.1 mg/g-dw
[1]; 29 mg/kg
  % with net iron reduction: 44%
  Mean net change in hepatic iron: −0.3 mg/g-dw
[1]; initial dose 14.5 mg/kg/day
  LIC, Week 12: 13.7 (1.74)
  LIC, Week 24: 13.6 (1.94)
  LIC, Week 48: 11.7 (1.46)
[1]; initial dose 29 mg/kg/day
  LIC, Week 12: 13.6 (2.04)
  LIC, Week 24: 12.8 (1.79)
  LIC, Week 48: 11.8 (2.04)
[1]; once daily oral, dose as low as 14.5 mg/kg of body weight
  effect on liver iron concentration in iron overload patients: reduces liver iron concentration
[2]
  solubility: ≥ 48 mg/mL

— patent US8993606B2, “Oral formulations for treating metal overload” (FerroKin BioSciences, Inc., priority 2011, dated 2015)
